The nature of data set [1]: Cytotoxicity assay (CCK-8), MCF-7. It is filed as cell-based. The settings on record: human; MCF-7 cells, CCK-8, 72 h; read-out: Cytotoxic results IC50, MCF-7. The protocol:
(§1) Cytotoxic activities of the isolated compounds 1–17 and trichostatin A (TSA, positive control) against 10 tumor cell lines (K562, MCF-7, A549, Huh-7, H1975, HeLa, HL7702, HL60, MOLT-4, and DU145) were tested. […]. Cytotoxicity was assayed with the CCK-8 (Dojindo, Japan) method. 10 Cell lines K562, MCF-7, A549, Huh-7, H1975, Hela, HL7702, HL60, MOLT-4, and DU145 were purchased from Shanghai Cell Bank, Chinese Academy of Sciences. Cells were routinely grown and maintained in RPMI or DMEM media with 10% fetal bovine serum and with 1% penicillin/streptomycin. All cell lines were incubated in a Thermo/ Forma Scientific CO2 water-jacketed incubator with 5% CO2 in air at 37 °C. A cell viability assay was determined with the CCK-8 (Dojindo, Japan) assay. Cells were seeded at a density of 400−800 cells/well in 384-well plates and treated with various concentrations of compounds or solvent control. After 72 h incubation, CCK-8 reagent was added, and absorbance was measured at 450 nm using an Envision 2104 multilabel reader (PerkinElmer, USA). Dose−response curves were plotted to determine the IC50 values using Prism 5.0 (GraphPad Software Inc., USA).

A short description of data set [2]: Cytotoxicity assay (CCK-8), HeLa. The settings on record: human; HeLa cells, CCK-8, 72 h; read-out: Cytotoxic results IC50, HeLa. Format: cell-based. The protocol: as §1
Data set [3] is described as follows: Cytotoxicity assay (CCK-8), HL60. It is filed as cell-based. Particulars: human; HL60 cells, CCK-8, 72 h; read-out: Cytotoxic results IC50, HL60. The procedure: as §1
Data set [4] can be described thus: Cytotoxicity assay (CCK-8), A549. It is filed as cell-based. Particulars: human; A549 cells, CCK-8, 72 h; read-out: Cytotoxic results IC50, A549. The protocol:
as §1

The nature of data set [5]: Cytotoxicity assay (CCK-8), K562. It is filed as cell-based. The settings on record: human; K562 cells, CCK-8, 72 h; read-out: Cytotoxic results IC50, K562. The procedure: as §1
The subject of data set [6] is 10 tumor cell lines (K562, MCF-7, A549, Huh-7, H1975, HeLa, HL7702, HL60, MOLT-4, and DU145). In words: Cytotoxicity against the panel of 10 tumor cell lines (summary statements). Format: cell-based. The procedure: as §1
The nature of data set [7]: Cytotoxicity assay (CCK-8), HL7702. Format: cell-based. Particulars: human; HL7702 cells, CCK-8, 72 h; read-out: Cytotoxic results IC50, HL7702. The protocol:
as §1

The nature of data set [8]: Cytotoxicity assay (CCK-8), MOLT-4. It is filed as cell-based. Particulars: human; MOLT-4 cells, CCK-8, 72 h; read-out: Cytotoxic results IC50, MOLT-4. The protocol: as §1
The nature of data set [9]: Cytotoxicity assay (CCK-8), DU145. Format: cell-based. Particulars: human; DU145 cells, CCK-8, 72 h; read-out: Cytotoxic results IC50, DU145. The procedure: as §1
A short description of data set [10]: Cytotoxicity assay (CCK-8), Huh-7. Particulars: human; Huh-7 cells, CCK-8, 72 h; read-out: Cytotoxic results IC50, Huh-7. It is filed as cell-based. The procedure:
as §1

Data set [11] is described as follows: Cytotoxicity assay (CCK-8), H1975. The settings on record: human; H1975 cells, CCK-8, 72 h; read-out: Cytotoxic results IC50, H1975. It is filed as cell-based. The protocol:
as §1

A further data set has as its target T1, COX-2 (Ovis aries, UniProt P79208).
T1 construct: purchased
T1 sequence (P79208 17-603): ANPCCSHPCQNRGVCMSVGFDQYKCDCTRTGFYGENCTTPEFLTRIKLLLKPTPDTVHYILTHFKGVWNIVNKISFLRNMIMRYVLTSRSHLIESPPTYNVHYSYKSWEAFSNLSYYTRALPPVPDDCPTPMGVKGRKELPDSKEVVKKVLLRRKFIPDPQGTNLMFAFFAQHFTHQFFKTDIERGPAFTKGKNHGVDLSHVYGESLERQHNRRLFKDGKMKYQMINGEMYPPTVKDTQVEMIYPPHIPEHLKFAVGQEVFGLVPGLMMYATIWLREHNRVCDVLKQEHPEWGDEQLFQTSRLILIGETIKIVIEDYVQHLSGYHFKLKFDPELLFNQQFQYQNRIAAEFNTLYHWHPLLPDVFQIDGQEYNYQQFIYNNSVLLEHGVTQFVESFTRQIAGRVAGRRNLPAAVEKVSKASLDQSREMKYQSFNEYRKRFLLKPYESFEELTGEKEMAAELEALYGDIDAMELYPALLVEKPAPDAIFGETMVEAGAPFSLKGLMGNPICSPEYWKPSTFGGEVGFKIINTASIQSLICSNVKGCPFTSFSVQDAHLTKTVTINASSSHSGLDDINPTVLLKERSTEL
The data set can be described thus: COX-2 inhibitory activity assay (COX (ovine) inhibitor screening kit). Format: biochemical. The settings on record: enzyme immunoassay. The procedure:
According to the manufacturer's instructions. The test compounds were dissolved in DMSO and the final concentration was set as 10 μM.
The COX-2 enzyme is a well-established target for anti-inflammatory evaluation. […] The COX-2 enzyme catalyses the biosynthesis of PGH2 from arachidonic acid. In this assay, the PGF2a produced by the reduction of PGH2 with stannous chloride (SnCl2) was measured in this enzyme immunoassay. The stock solutions were prepared in dimethyl sulfoxide, and the final concentration was set as 10 mM for the isolated compounds. The percentage inhibition was calculated by comparison with control incubations.

Data set [12] can be described thus: Cytotoxicity against the panel of 10 tumor cell lines (summary statements). It is filed as cell-based. The settings on record: human. The protocol: as §1
Another data set deals with MCF-7. In words: Cytotoxicity assay (CCK-8), MCF-7. Format: cell-based. The settings on record: MCF-7 cells, CCK-8, 72 h; read-out: Cytotoxic results IC50, MCF-7. The protocol: as §1
The test system of a further data set is HeLa. In words: Cytotoxicity assay (CCK-8), HeLa. It is filed as cell-based. The settings on record: HeLa cells, CCK-8, 72 h; read-out: Cytotoxic results IC50, HeLa. The protocol:
as §1

The subject of a further data set is HL60. In words: Cytotoxicity assay (CCK-8), HL60. Format: cell-based. The settings on record: HL60 cells, CCK-8, 72 h; read-out: Cytotoxic results IC50, HL60. The protocol:
as §1

In a further data set the test system is A549. The data set can be described thus: Cytotoxicity assay (CCK-8), A549. It is filed as cell-based. The settings on record: A549 cells, CCK-8, 72 h; read-out: Cytotoxic results IC50, A549. The procedure:
as §1

A further data set concerns K562. In words: Cytotoxicity assay (CCK-8), K562. Format: cell-based. The settings on record: K562 cells, CCK-8, 72 h; read-out: Cytotoxic results IC50, K562. The protocol: as §1
In the next data set the test system is HL7702. The data set can be described thus: Cytotoxicity assay (CCK-8), HL7702. Format: cell-based. The settings on record: HL7702 cells, CCK-8, 72 h; read-out: Cytotoxic results IC50, HL7702. The protocol:
as §1

Another data set deals with MOLT-4. In words: Cytotoxicity assay (CCK-8), MOLT-4. Particulars: MOLT-4 cells, CCK-8, 72 h; read-out: Cytotoxic results IC50, MOLT-4. It is filed as cell-based. The procedure:
as §1

The next data set has as its system DU145. In words: Cytotoxicity assay (CCK-8), DU145. The settings on record: DU145 cells, CCK-8, 72 h; read-out: Cytotoxic results IC50, DU145. It is filed as cell-based. The procedure:
as §1

The next data set relates to Huh-7. The data set can be described thus: Cytotoxicity assay (CCK-8), Huh-7. It is filed as cell-based. The settings on record: Huh-7 cells, CCK-8, 72 h; read-out: Cytotoxic results IC50, Huh-7. The protocol:
as §1

A further data set concerns H1975. In words: Cytotoxicity assay (CCK-8), H1975. Format: cell-based. The settings on record: H1975 cells, CCK-8, 72 h; read-out: Cytotoxic results IC50, H1975. The procedure: as §1

Regarding `Cc1cc(CO)c2c(=O)c3c(O)cccc3oc2c1` [Compound 8, 1-Hydroxy-6-methyl-8-hydroxy-methylxanthone], the IC50 at 72 h in data set [1] is 141 µM; in data set [2], 14.3 µM; in [3] it was above 200 µM; in data set [4], 128 µM; in [5] it was above 200 µM; in data set [7] it was 33.8 µM. Besides, the IC50 at 72 h was above 200 µM in [8], above 200 µM in [9], 122 µM in data set [10] and above 200 µM in [11]. For the same molecule, the “Cytotoxicities against HeLa and HL7702 cells (in words)” value in data set [6] (HeLa and HL7702 cells) is listed as “weak selective cytotoxicities”.

`Cc1cc(O)c(O)c2oc3c(C(=O)O)cc(O)cc3c12` [Compound 6, Porric acid E] yielded an IC50 on COX-2 of 3.3 µM.

As to `COC(=O)c1c(C)cc(O)cc1Oc1cc(C)cc(O)c1` [Compound 3, Diorcinol L], the IC50 at 72 h in data set [1] is 10.5 µM; in data set [2], 7.1 µM; in data set [3], 9.6 µM; in data set [4] it was 17.7 µM; in [5], 43.5 µM; in data set [12] (range over Huh-7, HeLa, DU145 and HL60 cells, read-out: Cytotoxicities IC50 values against Huh-7, HeLa, DU145 and HL60 cells) it was 5.7 to 9.6 µM. The IC50 at 72 h in [12] (range over the tumor cell lines of Table 3, read-out: Cytotoxicities IC50 values in the range over the cell lines) was 5.7 to 68.2 µM; in [7], 68.2 µM; in data set [8] it was above 200 µM; in data set [9], 9.1 µM; in [10], 5.7 µM; in data set [11] it was 15.3 µM. Moreover, the “Activities against other five cell lines (in words)” value in data set [6] (cell lines other than Huh-7, HeLa, DU145 and HL60) is “weak activities”.

In the case of `CC(/C=C/C(=O)NO)=C\[C@@H](C)C(=O)c1ccc(N(C)C)cc1` [TSA, trichostatin A, reference compound], the IC50 amounted to 700 nM with MCF-7; 80 nM with HeLa; 40 nM with HL60; 300 nM in the data set with A549; 100 nM with K562; 90 nM in the data set with HL7702. Besides, the IC50 worked out at 30 nM in the data set with MOLT-4, 40 nM with DU145, 80 nM with Huh-7 and 90 nM in the data set with H1975.

As usually defined, the IC50 is the concentration that inhibits the measured activity by half.

Values taken from publication PMC6221957, “Phenol Derivatives From the Sponge-Derived Fungus Didymellaceae sp. SCSIO F46” (Frontiers in Chemistry, 2018).
